Test results from BindingDB's records for doi:10.7270/Q2251GJ9 (The Scripps Research Institute Molecular Screening Center, 2007).

Biological target: Sphingosine 1-phosphate receptor 1 (Homo sapiens, UniProt P21453)
Assay: S1P1 receptor agonists, dose response, cell-based, agonist mode, 60K MLSMR set (AID 468)
Conditions: not given

Sequence of Sphingosine 1-phosphate receptor 1 (P21453 whole entry): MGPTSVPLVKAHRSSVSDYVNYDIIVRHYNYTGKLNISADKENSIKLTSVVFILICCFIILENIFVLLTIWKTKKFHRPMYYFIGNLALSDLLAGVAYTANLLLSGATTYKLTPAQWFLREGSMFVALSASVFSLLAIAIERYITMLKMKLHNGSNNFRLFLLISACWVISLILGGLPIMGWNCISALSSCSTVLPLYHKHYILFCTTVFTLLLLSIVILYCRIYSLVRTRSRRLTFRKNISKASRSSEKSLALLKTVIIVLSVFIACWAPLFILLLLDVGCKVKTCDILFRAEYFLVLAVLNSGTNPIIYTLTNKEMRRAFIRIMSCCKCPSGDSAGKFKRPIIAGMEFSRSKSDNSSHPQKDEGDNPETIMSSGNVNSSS

| Structure (SMILES) | EC50 [µM] |
| --- | --- |
| CCc1ccc2oc(-c3cc(N)cc(C)c3O)nc2c1 [(6E)-4-amino-6-(5-ethyl-3H-1,3-benzoxazol-2-ylidene)-2-methyl-1-cyclohexa-2,4-dienone] | 11.4 |
| CC(C)c1ccc2oc(-c3cc(N)ccc3O)nc2c1 [(6E)-4-amino-6-(5-isopropyl-3H-1,3-benzoxazol-2-ylidene)cyclohexa-2,4-dien-1-one] | 9.37 |
| C=C(C)COc1ccc(-c2nc(N)nc(C)c2Oc2ccccc2OC)c(O)c1 [(6E)-6-[2-amino-5-(2-methoxyphenoxy)-6-methyl-1H-pyrimidin-4-ylidene]-3-(2-methylallyloxy)cyclohexa-2,4-dien-1-one] | 3.8 |
| COc1ccc(-c2n[nH]cc2-c2ccc3c(c2)OCCO3)c(O)c1 [(6E)-6-[4-(2,3-dihydro-1,4-benzodioxin-6-yl)-1,2-dihydropyrazol-3-ylidene]-3-methoxycyclohexa-2,4-dien-1-one] | 0.986 |
| CCOC(=O)CN(C(=O)CSc1nnc(-c2cccc(OC)c2)o1)c1ccc(F)cc1 [((4-Fluoro-phenyl)-{2-[5-(3-methoxy-phenyl)-[1,3,4]oxadiazol-2-ylsulfanyl]-acetyl}-amino)-acetic acid ethyl ester] | 3.17 |
| CC(=N)C(C#N)C(=O)CSc1nc2cc(Cl)ccc2s1 (centres undefined) [(E)-3-amino-2-[2-[(5-chloro-1,3-benzothiazol-2-yl)sulfanyl]acetyl]but-2-enenitrile] | 15.6 |
| CC(=N)C(C#N)C(=O)CSc1nnc(SCc2ccc(Cl)cc2)s1 (centres undefined) [(E)-3-amino-2-[2-[[5-[(4-chlorobenzyl)thio]-1,3,4-thiadiazol-2-yl]thio]acetyl]but-2-enenitrile] | 8.95 |
| Cc1noc(/C=C/N(C)C)c1S(=O)(=O)N1CCN(c2ccccc2)CC1 [(E)-N,N-dimethyl-2-[3-methyl-4-(4-phenylpiperazin-1-yl)sulfonyl-1,2-oxazol-5-yl]ethenamine] | > 95 |
| O=S(=O)(C/C(=C/CO)S(=O)(=O)c1ccccc1)c1ccccc1 [(Z)-3,4-bis(benzenesulfonyl)but-2-en-1-ol] | > 3 |
| CC(=O)Nc1cc(OC(C)=O)c2nonc2c1OC(C)=O [Acetic acid 7-acetoxy-5-acetylamino-benzo[1,2,5]oxadiazol-4-yl ester] | 7.53 |
| CCN(C(=O)C1CCCCC1)c1nnc(-c2cccnc2)s1 [Cyclohexanecarboxylic acid ethyl-(5-pyridin-3-yl-[1,3,4]thiadiazol-2-yl)-amide] | 2.13 |
| COCCN(C(=O)c1ccccc1)c1nnc(-c2cccnc2)s1 [MLS000032523] | 6.68 |
| O=C(CCC(=O)N(Cc1ccco1)C(C(=O)NC1CCCC1)c1ccncc1)Nc1cccnc1 (centres undefined) [MLS000033292] | > 95 |
| CC(C)(C)NC(=O)CSc1ncnc2c1nnn2Cc1ccccc1Cl [MLS000034488] | 9.4 |
| CCOC(=O)Nc1ccc2c(c1)N(C(=O)CCN(C)C)c1ccccc1S2 [MLS000038082] | 33.9 |
| Cc1ccc2[nH]c3c(NCc4ccco4)ncnc3c2c1 [MLS000040855] | 9.9 |
| CCCCOc1ncnc2c1[nH]c1ccccc12 [MLS000041483] | 4.18 |
| COc1ccc(CCNc2ncnc3c2oc2ccccc23)cc1OC [MLS000041708] | 0.537 |
| CCCC(=O)Nc1ccc2oc(-c3ccc(OC)c(Br)c3)nc2c1 [MLS000042482] | 4.96 |

| Structure (SMILES) | EC50 [µM] |
| --- | --- |
| CCOc1ccccc1OCCCCCc1c(C)n[nH]c1C [MLS000043342] | 1.56 |
| Cc1cc(C(=O)Nc2sc(C)c(-c3ccc(F)cc3)c2C(N)=O)no1 [MLS000043467] | 6.79 |
| Cn1nc(CC(=O)Nc2ccc3c(c2)OCCO3)c2ccccc2c1=O [MLS000047020] | 5.94 |
| O=C(Nc1ccc(-c2noc(CCc3ccccc3)n2)cc1)c1cccnc1 [MLS000047253] | 3.6 |
| COc1ccc(-n2nc3ccc(NS(C)(=O)=O)cc3n2)cc1Cl [MLS000049114] | 0.148 |
| O=S(=O)(Nc1ccc2c(c1)OCCO2)c1ccc2oc3ccccc3c2c1 [MLS000051884] | 7.68 |
| CCN=c1scc(-c2ccc3c(c2)NC(=O)CO3)n1N=C1CCCC1 [MLS000054638] | 8.6 |
| CCOC(=O)c1c(C)[nH]c(C(=O)C(C)OC(=O)c2cccc(OCc3c(C)noc3C)c2)c1C (centres undefined) [MLS000054923] | 4.37 |
| COc1cc(C(=O)N2CCN(S(=O)(=O)c3ccc(C)cc3)CC2)ccc1OCc1c(C)noc1C [MLS000056221] | > 95 |
| CC(=O)Nc1ccccc1OCC(=O)c1cc(C)n(Cc2cccs2)c1C [MLS000056239] | 0.202 |
| CCCn1c(NC(=O)c2cccc(S(=O)(=O)N3CCCC3)c2)nc2ccccc21 [MLS000057540] | 8.82 |
| c1ccc2c(c1)oc1c(NCc3ccc4c(c3)OCO4)ncnc12 [MLS000057790] | 5.6 |
| CCCC(=O)Nc1ccc(-c2nc3cc(C)ccc3o2)cc1 [MLS000061826] | 5.96 |
| O=C(Nc1ccc(N2CCOCC2)c(Cl)c1)c1cccc(F)c1 [MLS000066209] | 1.23 |
| Cc1ccc2oc(-c3ccc(NC(=O)c4cccnc4)cc3)nc2c1 [MLS000068975] | 3.05 |
| CCN(C(=O)c1ccc(C(C)(C)C)cc1)c1nnc(Cn2nnc3ccccc32)s1 [MLS000072751] | 1.49 |
| O=C(Nc1nc(-c2ccc3c(c2)OCO3)cs1)c1ccncc1 [MLS000073104] | 9.54 |
| Cc1ccc2c(c1)N(CC(=O)Nc1ccc3c(c1)OCCO3)C(=O)CO2 [MLS000074457] | > 95 |
| CCCN(C(=O)c1cccs1)c1nnc(-c2ccncc2)s1 [MLS000074637] | 3.38 |

| Structure (SMILES) | EC50 [µM] |
| --- | --- |
| Cc1ccnc(SCC(=O)Nc2sc3c(c2C#N)CCCC3)n1 [MLS000077260] | 4.76 |
| c1ccc(CN2CCN(c3ncnc4c3[nH]c3ccccc34)CC2)cc1 [MLS000078384] | 4.18 |
| Fc1ccc2[nH]c3c(N4CCSCC4)ncnc3c2c1 [MLS000078401] | 6.12 |
| NC(=Nc1nc2c(c(=O)[nH]1)CCCC2)Nc1ccccc1 [MLS000078734] | 7.23 |
| CCc1ccc(NC(=O)c2cc(-c3ccco3)on2)cc1 [MLS000087211] | 6.93 |
| Cc1ccc(NC(=O)c2cc(-c3ccco3)on2)cc1C [MLS000087214] | 4.99 |
| CCc1c(C)sc(NC(=O)c2cc(-c3ccco3)on2)c1C#N [MLS000087225] | 4.14 |
| Cc1nn(Cc2ccc(Cl)c(Cl)c2)c(C)c1NC(=O)c1cc(-c2ccco2)on1 [MLS000087229] | 5.63 |
| COc1ccc(NC(=O)c2cc(-c3cccs3)on2)cc1OC [MLS000087261] | 5.79 |
| COc1ccc2c(c1)CCc1c(C(=O)Nc3ccc(OC)c(OC)c3)noc1-2 [MLS000087452] | 3.3 |
| CCOc1ccc(C(C)=O)cc1-n1c(O)c2c(c1O)C1C=CC2O1 [MLS000087730] | 10.2 |
| Cn1c(SCC(=O)Nc2ccc(N3CCOCC3)c(Cl)c2)nnc1-c1ccccc1 [MLS000089171] | 2.22 |
| O=S(=O)(NCc1cn2ccsc2n1)c1ccc(Oc2ccccc2)cc1 [MLS000094195] | 6.07 |
| CCCC(=O)N1CCN(c2ccc(NC(=O)c3cc4ccccc4o3)cc2Cl)CC1 [MLS000096729] | 8.85 |
| CCCc1ccc(OCc2nc(-c3ccc(NC(=O)c4ccco4)cc3)no2)cc1 [MLS000097352] | 4.39 |
| O=C(Nc1nc(-c2ccc(Cl)s2)cs1)c1ccncc1 [MLS000098514] | > 3 |
| O=C(Nc1ccc(S(=O)(=O)NCc2ccco2)cc1)c1ccc2ccccc2n1 [MLS000098663] | 8.51 |
| CCC(=O)Nc1ccc2c(c1)C(=O)N(C1CCCCC1)C2=O [MLS000099936] | > 30 |

Same assay, conditions: inactive by the depositor's call

| Structure (SMILES) | EC50 [µM] |
| --- | --- |
| CCc1ccc2c(COC(=O)c3n[nH]c4ccccc34)cc(=O)oc2c1 [(7-ethyl-2-oxochromen-4-yl)methyl 1H-indazole-3-carboxylate] | 10.6 |
| Cc1noc(/C=C/N(C)C)c1S(=O)(=O)N1CCc2ccccc21 [(E)-2-[4-(2,3-dihydroindol-1-ylsulfonyl)-3-methyl-1,2-oxazol-5-yl]-N,N-dimethyl-ethenamine] | 95 |
| CC1=C(/C=C/C(C)=C/C=C/C(C)=C/C(=O)O)C(C)(C)CCC1 [ALL-TRANS-RETINOIC ACID] | 25.4 |
| CC1Cc2cc(-c3csc(NC(=O)Cc4cccs4)n3)ccc2N1S(C)(=O)=O (centres undefined) [MLS000027766] | 11.8 |
| Cc1ccccc1OCC(=O)Nc1ccc(N2CCN(C(=O)C(C)C)CC2)c(Cl)c1 [MLS000034491] | 16.8 |
| CC(=O)c1sc(NC(=O)C2(F)C(F)(F)C(F)(F)C(F)(F)C(F)(F)C2(F)F)nc1C [MLS000040071] | 30.4 |
| CC(C)[C@H](NC(=O)OC(C)(C)C)c1nnc(SCC(=O)Nc2ccc(Br)cc2)o1 [MLS000040800] | 14.7 |
| CC(C)OCCCNc1ncnc2c1[nH]c1ccccc12 [MLS000041327] | 14 |
| COc1cccc(-c2nc(-c3ccc(NC(=O)c4cccnc4)cc3)no2)c1 [MLS000047254] | 26.1 |
| CC(=O)Nc1ccc(S(=O)(=O)N2CCN(CCCOc3cc(C)ccc3C)CC2)cc1 [MLS000050317] | 15.2 |
| N#C/C(=C/c1ccc(N2CCCCCC2)o1)c1ccc(F)cc1 [MLS000051438] | 22.4 |
| CN(Cc1cccs1)c1ncnc2sccc12 [MLS000056228] | 13 |
| Cc1csc(NC(=O)c2nc(-c3ccccc3)n(-c3ccccc3)n2)n1 [MLS000058347] | 10.1 |
| COc1cccc(-c2csc(N3CCN(CC(=O)Nc4ccc5c(c4)OCO5)CC3)n2)c1 [MLS000070935] | 17 |
| O=C(c1ccco1)N1CCN(c2ncnc3c2[nH]c2ccc(Br)cc23)CC1 [MLS000078404] | 13.9 |
| CCN(CC)C(=O)Oc1ccc2c(=O)c(-c3ccc(OC)cc3)coc2c1 [MLS000083046] | 12.9 |
| COc1ccc(-c2cc(C(=O)NC3CCCC3)no2)cc1OC [MLS000087117] | 15.8 |
| COc1ccc(OC)c(-c2cc(C(=O)Nc3c(C)nn(Cc4ccc(Cl)cc4)c3C)no2)c1 [MLS000087191] | 20.8 |
| Cc1nn(Cc2ccc(Cl)cc2)c(C)c1NC(=O)c1cc(-c2ccco2)on1 [MLS000087233] | 13.8 |
| COc1ccc2c(c1)CCc1c(C(=O)NC3CCCCC3)noc1-2 [MLS000087437] | 95 |
| O=C(Nc1nc(-c2nc3ccccc3s2)cs1)c1ccc(S(=O)(=O)N2CCOCC2)cc1 [MLS000087900] | 17.6 |
| CCCC(=O)Nc1ccc(-c2nc3cc(C)c(C)cc3o2)cc1 [MLS000089940] | 10.2 |
| Cc1cccc(-n2ncc3c(N(C)C4CCCCC4)ncnc32)c1 [MLS000100814] | 95 |
